Measured values from patent US3933918A, “2-Allyloxy-4-chloro-acetophenone” (Kyowa Hakko Kogyo Co., Ltd., priority 1973, dated 1976).
Where a name gives a salt, the structure may show the parent alone.

Key:
[1] = Acute toxicity in mice, determined as LD50; details: in vivo, mouse; for LD50 at 168 h: po, P.O., observed one week; for LD50 at 72 h: sc, S.C., observed 72 hours
Protocol: (§1) Acute Toxicity in Mice and in Rats -- Determined as LD50
a. More than 5 groups of male ddy-strain mice, each consisting of 10 animals weighing 18-20 g are used. The animals are given graded doses of the test compound or the standard compound by subcutaneous injection and are observed for 72 hours.
b. More than 6 groups of male dd-strain mice, each consisting of 20 animals weighing 18-20 g are used. The animals are given graded doses of the test compound or the standard compound orally and are observed for one week.
(§2) The LD50 is calculated according to the method of Litchfield and Wilcoxon [J. Pharmacol. & Exper. Therap. 96, 99 (1949)].

[2] = Acute toxicity in rats, determined as LD50; details: in vivo, po; rat, P.O., observed one week
Protocol: as §1
c. More than 5 groups of male Wistar strain rats, each consisting of 15 animals weighing 110-150 g are used. The animals are given graded doses of the test compound and the standard compound orally and are observed for one week.
as §2

[3] = test system: coughs induced by mechanical stimulation of the tracheal mucosa; assay: Antitussive effect on coughs induced by mechanical stimulation of the tracheal mucosa in dogs ("Coughing dog" method); type: in vivo; details: for ED50: Canis lupus familiaris, iv, dog, mechanical stimulation, i.v., fiducial limits (P = 0.05), read-out: AtD50 (50% antitussive dose)
Protocol: a. Effect on coughs induced by mechanical stimulation of the tracheal mucosa in dogs
More than 4 groups of dogs, each consisting of 5 animals of either sex weighing 6-10 kg are used. The test is conducted according to "Coughing dog" method [Jap. J. Pharmacol. 2, 7-13 (1952); Pharm. Bull. (Japan) 2 298 (1954); and Jap. J. Pharmacol. 4 130 (1955)]. Coughs are induced by mechanical stimulation with a bristle stimulator made of pig bristles on the tracheal bifurcation through a chronically-built tracheal fistula.
Stimulation is applied by constantly and intensely moving the stimulator up and down 10 times for 20 seconds and the stimulation is repeated every 5 minutes. The changes of the inner pressure of the trachea brought about by coughs are recorded on a smoked paper. The animals are given graded doses of the test compound or the standard compound by intravenous injection.
The antitussive effect of the compounds is determined by the changes in both the amplitude and frequency of the cough curves on the smoked paper and the duration of such changes. When the amplitude and/or the frequency are decreased by more than 20% as compared with those before administration of the drug and when the decrease lasts for more than 20 minutes, the effect is determined to be significant. On the basis of the criteria of evaluation, the 50% antitussive dose (hereinafter referred to as AtD50) is calculated according to the method of Litchfield and Wilcoxon.

[4] = test system: coughs induced by mechanical stimulation of the tracheal mucosa; assay: Antitussive effect on coughs induced by mechanical stimulation of the tracheal mucosa in anesthetized cats ("Coughing cat" method); type: in vivo; details: for ED50: Felis catus, iv, cat, mechanical stimulation, i.v., fiducial limits (P = 0.05), read-out: AtD50 (50% antitussive dose)
Protocol: b. Effect on coughs induced by mechanical stimulation of the tracheal mucosa in anesthetized cats
More than 4 groups of cats, each consisting of 6 animals of either sex weighing 2-3 kg are used. The animals are lightly anesthetized by intraperitoneal injection of 20 mg/kg of pentobarbital sodium. The test is conducted according to "Coughing cat" method [Folia Pharmacol japon. 55 99 (1959)].
Coughs are induced in the same manner as described above except that a bristle stimulator made of whiskers of rabbit is used. The AtD50 is calculated in the same manner as described above.

[5] = test system: coughs induced by electrical stimulation of central stump of the superior laryngeal nerve; assay: Antitussive effect on coughs induced by electrical stimulation of central stump of the superior laryngeal nerve in anesthetized cats; type: in vivo; details: Felis catus, iv, cat, i.v., fiducial limits (P = 0.05), read-out: AtD50 (50% antitussive dose)
Protocol: More than 4 groups of cats, each consisting of 6 animals of either sex weighing 2-3 kg are used. The animals are lightly anesthetized by intraperitoneal injection of 20 mg/kg of pentobarbital sodium. The test is conducted according to the method of Domenjoz (Arch. Exp. Path. u. Pharmakol, 215, 19 (1952)].
The changes of inner pressure of the trachea brought about by coughs are recorded. The animals are given graded doses of the test compound or the standard compound by intravenous injection.
The antitussive effect of the compounds is determined by the changes in both the amplitude and frequency of the cough curves and the duration of the changes. When the amplitude and/or the frequency of the coughs induced by a stimulus of moderate intensity are decreased by more than 20% as compared with those before administration of the drug and when the decrease lasts for more than 20 minutes, the effect is determined to be significant. On the basis of the criteria of evaluation, the AtD50 is calculated according to the method of Lichfield and Wilcoxon.

[6] = test system: coughs induced by mechanical stimulation on the mucosa of the tracheal bifurcation; assay: Comparison of equi-active antitussive doses for various routes of administration in anesthetized dogs; type: in vivo, dog; details: for Site of antitussive action: central nerve: conclusion in words; for Dose giving nearly the same antitussive effect: dog
Protocol: a. Comparison of equi-active doses for various routes of administration
Five dogs weighing 8-10 kg are used. Polyethylene tubes are previously installed in the animals in the femoral vein, the vertebral artery and the cerebello-medullary cistern. The animals are lightly anesthetized by intraperitoneal injection of 20 mg/kg of pentobarbital sodium. The hydrochloride of 2-allyloxy-4-chloro-β-piperidinopropiophenone is given through the polyethylene tubes. Coughs are induced by mechanical stimulation on the mucosa of the tracheal bifurcation. The doses necessary to obtain the same degree of antitussive effect as that obtained by the administration through the femoral vein are determined.

[7] = test system: pulmonary stretch receptor; assay: Effect on the pulmonary stretch receptor impulses in guinea pigs; type: in vivo, guinea pig; details: for Time required to return to the level before treatment with drug / Change of voltage of stretch receptor impulses (as compared with that before treatment with drug): reduced to / Change of voltage of stretch receptor impulses (as compared with that before treatment with drug): guinea pig
Text: b. Effect on the pulmonary stretch receptor impulses
Five guinea pigs weighing 400-600 g are used. The animals are anesthetized by subcutaneous injection of 1.2 g/kg of urethane and disposed in a supine position. The chest is opened under artificial ventilation. The left vagus nerve is sectioned at the cervical region and the peripheral stumps is placed on a bipolar platinum electrode. The impulses from the pulmonary stretch receptors are observed on an oscilloscope and recorded with a long-recording camera.
The animals are given graded doses of the hydrochloride of 2-allyloxy-4-chloro-β-piperidinopropiophenone by intravenous injection.
The action of the compound on a peripheral nerve is determined by the change of the voltage of the stretch receptor impulses.
As a control, the same test is conducted using benzonatate which is known as a peripherally acting antitussive.

## C=CCOc1cc(Cl)ccc1C(=O)CCN1CCCCC1 [2-Allyloxy-4-Chloro-β-Piperidinopropiophenone Hydrochloride]
[1]
  LD50 at 168 h: 240 mg/kg
  LD50 at 72 h: 105 mg/kg
[2]
  LD50 at 168 h: 1020 mg/kg
[3]
  ED50: 3.3 mg/kg
[3]; dogs, statement in words
  Antitussive effect compared with codeine phosphate: antitussive effect equal to codeine phosphate
[4]
  ED50: 4.8 mg/kg
[4]; cats, statement in words
  Antitussive effect compared with codeine phosphate: antitussive effect equal to codeine phosphate
[5]
  ED50: 4.2 mg/kg
[6]; Hydrochloride
  Site of antitussive action: central nerve: exerts its action on the central nerve
[6]; cerebello-medullary cistern
  Dose giving nearly the same antitussive effect: 0.06 to 0.1 mg/kg
[6]; femoral vein
  Dose giving nearly the same antitussive effect: 4.30 mg/kg
[6]; vertebral artery
  Dose giving nearly the same antitussive effect: 0.4 to 0.8 mg/kg
[6]; statement in words
  Ratio of effective doses for the three routes compared with codeine: almost the same as that obtained by using codeine
[7]; i.v., 5.0 mg/kg
  Time required to return to the level before treatment with drug: 10 to 20 min
[7]; i.v., 10.0 mg/kg
  Change of voltage of stretch receptor impulses (as compared with that before treatment with drug): reduced to: 1/2
  Time required to return to the level before treatment with drug: ~30 min
[7]; i.v., 1.0-2.0 mg/kg
  Change of voltage of stretch receptor impulses (as compared with that before treatment with drug): none
[7]; statement in words
  Effect on the impulses of the pulmonary stretch receptor: repress the impulses of the pulmonary stretch receptor

## C=CCOc1cc(Cl)ccc1C(=O)CCN1CCCCC1 [2-allyloxy-4-chloro-β-piperidinopropiophenone]
[6]
  Site of antitussive action: central nerve: acts centrally
[7]; conclusion in words
  Site of antitussive action: peripheral nerves: exerts a considerable action on peripheral nerves

## CCCCNc1ccc(C(=O)OCCOCCOCCOCCOCCOCCOCCOCCOCCOC)cc1 [Benzonatate]
[7]; 1.0 mg/kg
  Change of voltage of stretch receptor impulses (as compared with that before treatment with drug): reduced to: 3/4
  Time required to return to the level before treatment with drug: 10 min
[7]; 2.0 mg/kg
  Change of voltage of stretch receptor impulses (as compared with that before treatment with drug): reduced to: 1/2
  Time required to return to the level before treatment with drug: 30 min
[7]; 4.0 mg/kg
  Change of voltage of stretch receptor impulses (as compared with that before treatment with drug): reduced to: zero
  Time required to return to the level before treatment with drug: 30 to 40 min
[7]; 0.1-0.5 mg/kg
  Change of voltage of stretch receptor impulses (as compared with that before treatment with drug): none

## COc1ccc2c3c1O[C@H]1[C@@H](O)C=C[C@H]4[C@@H](C2)N(C)CC[C@@]341 [Codeine phosphate, reference compound]
[1]
  LD50 at 168 h: 729 mg/kg
  LD50 at 72 h: 191 mg/kg
[2]
  LD50 at 168 h: 807 mg/kg
[3]
  ED50: 2.5 mg/kg
[4]
  ED50: 2.3 mg/kg
[5]
  ED50: 2.1 mg/kg
